According to patent publication US11795200B2, “Nano small peptide and its use in preparation of drugs for treating and preventing fundus vascular diseases” (FUTU Biotech Co., Ltd., priority 2021, dated 2023):
Non-standard residues stand in square brackets, D forms with d. Residues, ends and D or L forms follow the SMILES beside them. No end group written: not given here. *: point of attachment. Palmitoyl = CCCCCCCCCCCCCCCC(=O)*

Columns and labels:
OIR model mice = assay: Fundus angiogenesis in OIR model (Isolectin B4, confocal); format: in vivo, mouse; conditions: for percentage of abnormal blood vessels in the total retinal area: 2 nmol injected into the vitreous on day 12, read on day 17; for treatment effect on fundus angiogenesis compared with BMA-12: 2 nmol vs 1 μg BMA-12, intravitreal
Description: Treatment group (OIR): After giving birth, 3-4 month old C57BL/6 mother mice were placed in an oxygen chamber with 75% oxygen together with 7 day old young mice, and the young mice and the mother mice were taken out on the 12th day of birth of the young mice. Immediately after the young mice were anesthetized, 2 nmol of FH, 2 nmol of FG, and 1 μg of Sema4D neutralizing antibody (BMA-12) (BMA-12, i.e., anti-Sema4D) were injected into the vitreous, and an equal volume of DMSO was used as a control. The young mice were then further raised in normal air for 5 days; the young mice were anesthetized on the 17th day of birth, and after cardiac perfusion with normal saline, the eyeballs were separated and then fixed, stained with Isolectin B4 overnight at 4° C., flatly spread on a glass slide, and photographed.
Control group (Normal): Young mice, grown with normoxia, were anesthetized on the 17th day of birth. After cardiac perfusion with normal saline, the eyeballs were taken out, and the retinas were peeled off and then fixed with 4% paraformaldehyde, stained with Isolectin B4 at 4° C. overnight, flatly spread on a glass slide, and photographed
Laser confocal was carried out to detect retinal angiogenesis, and ImageJ was carried out to calculate the ratio of retinal neovascularization clusters to the entire retinal area, that is, the proportion of new blood vessels. […] It can be seen in FIG. 4A that the treatment effect of FH is the best.

sSema4D = molecular target: T1, sSema4D (Mus musculus, UniProt O09126); assay: Reduction of sSema4D concentration in endothelial cell culture medium (ELISA); format: cell-based; conditions: for sSema4D concentration: medium with 1600 ng/mL sSema4D, FH 20 μM, BMA-12 2 μg/μL; for sustained reduction of sSema4D concentration: added to endothelial cells, 12 to 48 h
T1 construct: the free Sema4D protein after enzyme cleavage of Sema4D; purchased R&D Systems
T1 sequence (O09126 24-733): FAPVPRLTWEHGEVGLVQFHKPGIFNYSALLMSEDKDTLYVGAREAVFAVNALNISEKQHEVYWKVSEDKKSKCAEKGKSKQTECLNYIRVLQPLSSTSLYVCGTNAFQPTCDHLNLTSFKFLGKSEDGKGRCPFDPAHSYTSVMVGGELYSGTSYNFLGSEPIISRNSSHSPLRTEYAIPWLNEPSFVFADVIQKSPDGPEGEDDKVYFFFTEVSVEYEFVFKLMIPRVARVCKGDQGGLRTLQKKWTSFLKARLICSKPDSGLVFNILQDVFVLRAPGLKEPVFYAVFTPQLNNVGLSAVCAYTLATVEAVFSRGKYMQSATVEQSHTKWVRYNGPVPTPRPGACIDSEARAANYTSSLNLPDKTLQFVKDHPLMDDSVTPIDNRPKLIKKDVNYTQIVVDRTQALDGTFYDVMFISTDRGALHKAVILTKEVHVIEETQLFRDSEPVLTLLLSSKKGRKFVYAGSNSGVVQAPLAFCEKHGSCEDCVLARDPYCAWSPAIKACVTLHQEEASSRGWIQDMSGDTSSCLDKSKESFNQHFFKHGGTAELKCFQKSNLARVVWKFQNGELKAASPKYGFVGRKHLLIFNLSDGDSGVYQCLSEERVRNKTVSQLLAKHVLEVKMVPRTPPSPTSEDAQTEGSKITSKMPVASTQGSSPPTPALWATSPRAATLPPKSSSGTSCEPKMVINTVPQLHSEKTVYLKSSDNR
Description: Endothelial cells were uniformly seeded in 6-well cell culture plates and cultured in a 5% CO2 incubator at 37° C. for 24 h. The nano small peptides FH, FG, DMSO, and Sema4D neutralizing antibody (BMA-12) were added to the medium (the concentration of sSema4D in the medium was 1600 ng/mL) to ensure that the final concentration of FH and FG was 20 μM, and the final concentration of the sSema4D neutralizing antibody (BMA-12) was 2 μg/μL, an equal volume of DMSO was then added as a control, and the culture plates were cultured in an incubator for 12, 24, 36, and 48 h, respectively. The cell culture medium was then collected and centrifuged. The supernatant was taken and the expression of Sema4D protein in the supernatant was detected using an ELISA kit (Shanghai Yuanmu Biotechnology Co., Ltd.).

[1] = DLS particle size and zeta potential of FH and FG nanoparticles; format: physicochemical; conditions: zeta sizer, 25° C.
Description: First, FG and FH nanoparticle solutions with a concentration of 20 μM were prepared as follows. 0.01 mmol of FG (or FH) was weighed and dissolved in 1 mL of DMSO solution, and then diluted into 5 folds to a concentration of 2 mM, thus obtaining mother solution A. 10 μL of mother solution A was quickly added to 1 mL of water, and the resulting solution was then vortexed for 30 s to obtain a nanoparticle solution. Second, samples were made. 10 ul of FG (or FH) solution was added dropwise onto a copper mesh for 5 min, and the excess solution was removed with filter paper. 10 μL of uranyl acetate stain was added dropwise for 5 min, and the excess stain was removed with filter paper. Washing with 10 μl of deionized water was carried out once. The samples were dried in vacuum overnight. Finally, transmission electron microscopy observations were performed on an HT-7700 transmission electron microscope (Hitachi, Tokyo, Japan). Scale bar was 200 nm.
The particle size and zeta potential of FH and FG nanoparticles were measured with a zeta sizer (Nano ZZ90, Malvern, UK) at 25° C.

[2] = test system: primary mouse brain microvascular endothelial cells; assay: sSema4D-induced endothelial cell migration (transwell experiment); format: cell-based; conditions: 24 h; for inhibition of endothelial cell migration compared with BMA-12: 20 μM vs BMA-12 2 μg/μL; for sSema4D-induced endothelial cell migration: 20 μM, sSema4D 1600 ng/mL
Description: The primary mouse brain microvascular endothelial cells were starved with 0.5% ECM for 4 to 6 h. The mouse brain microvascular endothelial cells were seeded in the upper layer of a 24-well transwell chamber ([…]). 1% ECM medium containing FH (20 μM), FG (20 μM), and Sema4D neutralizing antibody (BMA-12) (2 μg/μL) (the concentration of sSema4D in the medium is 1600 ng/mL) was added to the lower chamber, and an equal volume of DMSO was added as control. The cells were incubated in a 5% CO2 incubator at 37° C. for 24 h. 24 h later, the cells on the bottom of the chamber were fixed with 4% paraformaldehyde and stained with crystal violet, and the endothelial cells that penetrated to the bottom of the chamber were counted under a microscope.

[3] = test system: mouse brain microvascular endothelial cells; assay: sSema4D-induced endothelial cell leakage (transmembrane resistance); format: cell-based; conditions: 36 h; for effect on endothelial cell leakage compared with BMA-12: 20 μM vs BMA-12 2 μg/μL; for sSema4D-induced endothelial cell leakage: 20 μM, sSema4D 1600 ng/mL
Description: A layer of fibronectin was first applied to coat the upper layer of a 24-well transwell chamber (0.4 um) and incubated at room temperature for 1 h; after coating, the mouse brain microvascular endothelial cells were seeded, and cultured for 5 days until the cells were full, and then FH (20 μM), FG (20 μM), and Sema4D neutralizing antibody (BMA-12) (2 μg/μL) were added to the medium (the concentration of sSema4D in the medium was 1600 ng/mL), respectively. An equal volume of DMSO was added as a control, and ECM was used as a blank control. After incubation for 36 h, the resistance value was measured by a cell transmembrane resistance measuring instrument.

Compound	percentage of abnormal blood vessels in the total retinal area (OIR model mice)	treatment effect among groups in FIG. 4A (OIR model mice; 2 nmol intravitreal)	treatment effect on fundus angiogenesis compared with BMA-12 (OIR model mice)	sSema4D concentration (sSema4D; 24 h, endothelial cells)	sSema4D concentration (sSema4D; 36 h, endothelial cells)	sustained reduction of sSema4D concentration (sSema4D; 20 μM)	effect on sSema4D concentration, FH compared with FG (sSema4D; endothelial cells, within the same action time, 20 μM)	charges (zeta potential) [1]	particle diameters [1] [nm]	inhibition of endothelial cell migration compared with BMA-12 [2]	sSema4D-induced endothelial cell migration [2]	effect on endothelial cell leakage compared with BMA-12 [3]	sSema4D-induced endothelial cell leakage [3]
CCCCCCCCCCCCCCCC(=O)N[C@H](Cc1ccccc1)C(=O)N[C@@H](Cc1ccccc1)C(=O)N[C@H](C(=O)N[C@@H](CC(C)C)C(=O)N[C@@H](CCCCN)C(=O)N[C@@H](CCCCN)C(=O)N[C@@H](CCC(N)=O)C(=O)N[C@@H](CCCCN)C(=O)N[C@@H](CCCNC(=N)N)C(=O)N1CCC[C@H]1C(=O)N[C@@H](CCCNC(=N)N)C(=O)N[C@@H](Cc1c[nH]cn1)C(=O)O)C(C)C [FH] (Palmitoyl-[dF]FVLKKQKRPRH-OH)	reduce the percentage of abnormal blood vessels in the total retinal area	the best	comparable to that of the Sema4D neutralizing antibody (BMA-12)	can reduce the sSema4D concentration	can still reduce the sSema4D concentration	can sustainably reduce the concentration of sSema4D	better than that of FG	+40.4 mV	54.43±2.8	more effective in inhibiting endothelial cell migration than Sema4D neutralizing antibody (BMA-12)	can significantly inhibit the sSema4D-induced endothelial cell migration	comparable to that of Sema4D neutralizing antibody (BMA-12)	can significantly inhibit sSema4D-induced endothelial cell leakage
Palmitoyl-FFVLKKNKAAKG [FG]	reduce the percentage of abnormal blood vessels in the total retinal area		comparable to that of the Sema4D neutralizing antibody (BMA-12)			can sustainably reduce the concentration of sSema4D		+44.8 mV	57.67±2.6	more effective in inhibiting endothelial cell migration than Sema4D neutralizing antibody (BMA-12)	can significantly inhibit the sSema4D-induced endothelial cell migration	comparable to that of Sema4D neutralizing antibody (BMA-12)	can significantly inhibit sSema4D-induced endothelial cell leakage
